Laboratory results: US10654843B2, “LMP7 inhibitors” (PRINCIPIA BIOPHARMA INC., priority 2014, dated 2020)
pIC50: −log10 of the molar value. Read-outs that look alike come from different tables or passages of the source. Blank lines part the entries; values can stand above or below the compound they belong to.

Legend:
[1] = system: multiple myeloma cell lines and primary patient tumor cells; conditions: including those resistant to conventional and novel prior therapies; cited from earlier work
[2] = molecular target: T1, proteasome activity in HT-29 cells (Homo sapiens, UniProt P28074); assay: Durability of binding in cells, wash-out assay (Proteasome-Glo), HT-29; assay type: cell-based; conditions: 2 hours incubation, washout
T1 construct: endogenous in cells; host or cells: HT-29
Protocol: The durability of binding of proteasome inhibitors was assessed in cells using wash-out assays and the Proteasome-Glo™ Reagent kit. THP-1 cells, HT-29 cells, or PBMC were incubated with an 8-fold dilution series of inhibitor for 2 hours. Following 2 hours of incubation, cells were washed using 3 occasions of centrifugation followed by resuspension in culture medium. Following inhibitor washout, cells were returned to culture for either 30 minutes, 4 hours, or 18 hours. Cells were then transferred to white 384 plates, and 20 uL of Proteasome-Glo™ Reagent was added to each well for 10 minutes. Plates were then read on an Analyst HT plate reader using luminescence mode. The percent inhibition of activity was plotted as a function of log compound concentration. The IC50 was then calculated for each compound using Prism software from GraphPad.

[3] = molecular target: immunoproteasome (LMP7) (Homo sapiens, UniProt P20618+P28062); assay: Recovery of enzymatic activity upon dialysis; assay type: biochemical; conditions: FIG. 1, dialysis
Excerpt: The dialysis assay was done to determine if a compound binds reversibly or irreversibly to immunoproteasome thereby resulting in reversible or irreversible inhibition of proteaseome activity. […] Partial or complete recovery of proteasome activity over extended periods of time during dialysis is indicative of slow off-rate kinetics due to formation of a reversible covalent bond. For rapidly reversible compounds complete recovery of proteosome activity upon dialysis is expected to be observed.
A solution containing immunoproteasome was incubated with a compound of the disclosure (test compound) or (S)-4-methyl-N—((S)-1-(((S)-4-methyl-1-((R)-2-methyloxiran-2-yl)-1-oxopentan-2-yl)amino)-1-oxo-3-phenylpropan-2-yl)-2-((S)-2-(2-morpholino-acetamido)-4-phenylbutanamido)-pentanamide (reference compound), an irreversible covalent inhibitor of the immunoproteosome which targets the catalytic threonine of the immunoproreasome subunits (see Kuhn, D. J., et al. 2007. Potent activity of carfilzomib, a novel, irreversible inhibitor of the ubiquitin-proteasome pathway, against preclinical models of multiple myeloma. Blood, 110(9), 3281-3290). […] Following dialysis, enzymatic activity was measured using the Caliper-based proteasome activity assay (Caliper Life Sciences, Hopkinton, Mass). […]

[4] = molecular target: constitutive proteasome (B5c) (Homo sapiens, UniProt P20618+P28074); assay: Caliper-based proteasome assay, constitutive proteasome chymotrypsin-like activity; assay type: biochemical; conditions: human recombinant constitutive proteasome 0.3 nM, FAM-labeled peptide substrate 1 μM, room temperature 3 h
Protocol: (§1) A Caliper-based proteasome assay (Caliper Life Sciences, Hopkinton, Mass.) was used to measure inhibition of the chymotrypsin-like activity of both immunoproteasome (LMP7/B5i) and the constitutive proteasome (B5c) for a compound of Formula (I). Serial dilutions of test compounds were incubated with either human recombinant immunoproteasome or constitutive proteasome (0.3 nM enzyme) and a carboxyfluorescein (FAM)-labeled peptide substrate FAM-TYETFKSIMKKSPF-NH2 (1 μM) at room temperature for 3 h. The reaction buffer was 20 mM Hepes pH 7.4, 0.01% bovine serum albumin, 0.015% SDS, 0.5 mM EDTA, 1% DMSO. The reaction was then terminated with a buffer containing the known proteasome inhibitor carfilzomib at a concentration of 5 uM. The peptide cleavage reaction product was quantified on a Caliper LabChip 3000. Percent inhibition was calculated for each compound dilution and the concentration that produced 50% inhibition was calculated. This value is presented as the IC50.

[5] = molecular target: T2, proteasome activity in primary human peripheral blood mononuclear cells (PBMC) (Homo sapiens, UniProt P28062); assay: Inhibition of proteasome activity in cells (Proteasome-Glo), PBMC; assay type: cell-based; conditions: 2 hr incubation, Suc-LLVY-aminoluciferin
T2 construct: endogenous in cells; host or cells: primary human PBMC
Protocol: (§2) The cell-based effects of the compound of the present disclosure on immunoproteasome were determined by measuring inhibition of proteasome activity in cells using the Proteasome-Glo™ Cell-Based Reagent (Promega, Madison Wis). The Proteasome-Glo™ assay contains a specific luminogenic proteasome substrate in a buffer optimized for cell permeabilization, proteasome activity, and luciferase activity. For the chymotrypsin-like activity, the peptide substrate is Suc-LLVY-aminoluciferin (Succinyl-leucine-leucine-valine-tyrosine-aminoluciferin). Cleavage of the substrate by proteasome results in luminescent signal which is proportional to the proteasome activity. The cell line THP-1 (a monocytic leukemia cell line enriched in immunoproteasome), the cell line HT-29 (a colorectal adenocarcinoma cell line enriched in constitutive proteasome), and primary human peripheral blood mononuclear cells (PBMC) were used to assess proteasome activity. Cells were seeded in a 96-well plate at 10,000 cells per well in RPMI 1640 high glucose medium with 10% fetal bovine serum (FBS). Compound dilutions were added to cells starting at a concentration of 5 uM and decreasing in tripling dilutions. The final DMSO concentration was 1%. The concentration range was adjusted as needed for compounds of different potencies. The cells treated with compounds were incubated for 2 hr at 37° C. in 5% CO2. At the end of the 2 hour incubation period, cells were transferred to white 384 well assay plates. 20 uL of Proteasome-Glo™ Reagent was added to each well and incubated for 10 minutes at room temperature. The plate was read in the Analyst HT instrument (Molecular Devices, Sunnyvale, Calif.) using luminescence mode. The percent inhibition of activity was plotted as a function of log compound concentration. The IC50 was then calculated for each compound using Prism software from GraphPad Software Inc. (San Diego, Calif).

[6] = molecular target: T3, proteasome activity in HT-29 cells (enriched in constitutive proteasome) (Homo sapiens, UniProt P28074); assay: Inhibition of proteasome activity in cells (Proteasome-Glo), HT-29; assay type: cell-based; conditions: 2 hr incubation, Suc-LLVY-aminoluciferin, read-out: HT29 IC50
T3 construct: endogenous in cells; host or cells: HT-29
Protocol: as §2

[7] = molecular target: immunoproteasome (LMP7/B5i) (Homo sapiens, UniProt P20618+P28062); assay: Caliper-based proteasome assay, immunoproteasome chymotrypsin-like activity; assay type: biochemical; conditions: human recombinant immunoproteasome 0.3 nM, FAM-labeled peptide substrate 1 μM, room temperature 3 h
Protocol: as §1

[8] = system: B cell effector functions; conditions: cited from earlier work
[9] = system: proinflammatory cytokines (IL-6, TNF-α, IL-23); conditions: cited from earlier work
[10] = system: murine DSS-induced colitis model; conditions: cited from earlier work
[11] = system: MRL/lpr lupus model; conditions: cited from earlier work
[12] = system: murine collagen-induced arthritis; conditions: including inflammation and bone erosion; cited from earlier work
[13] = system: human Th1/17 differentiation; conditions: cited from earlier work
[14] = system: mouse Th1/17 differentiation; conditions: cited from earlier work
[15] = system: Hashimoto's thyroiditis model; conditions: autoantibody-driven model; cited from earlier work

Compound: CC1=C(C(=O)N[C@H](C)C(=O)N[C@@H](Cc2c[nH]c3ccccc23)C(=O)N[C@@H](Cc2ccccc2)C(=O)[C@@]2(C)CO2)Cc2ccccc21 [PR-924]
growth of multiple myeloma cell lines and primary patient tumor cells [1]: inhibit growth

pIC50 ([2]; 30 minutes in culture, read-out: HT29 (30 min) IC50): < 5.30
pIC50 ([2]; 4 hours in culture, read-out: HT29 (4 h) IC50): < 5.30
binding to the immunoproteosome [3]: reversible
pIC50 [4]: 5.99
pIC50 [5]: 8.52
pIC50 [6]: 5.86
pIC50 [7]: 7.57
Compound: Cc1ccc(CNC(=O)[C@H](COc2cccc(C=C(C#N)C(=O)NC(C)(C)C)c2)NC(=O)[C@@H](NC(=O)c2cc(C)on2)[C@@H](C)O)cc1 [Example 3]

Compound: COc1ccc(C[C@H](NC(=O)[C@H](C)NC(=O)CN2CCOCC2)C(=O)N[C@@H](Cc2ccccc2)C(=O)[C@@]2(C)CO2)cc1 [PR-957]
B cell effector functions [8]: potently block
production of proinflammatory cytokines (IL-6, TNF-α, IL-23) [9]: potently block
inflammation and tissue destruction [10]: reduced inflammation and tissue destruction
anti-dsDNA IgG levels [11]: reduced
disease progression [11]: prevented disease progression
plasma cell numbers [11]: reduced
disease activity in murine collagen-induced arthritis [12]: significantly inhibit disease activity
human Th1/17 differentiation [13]: potently block
mouse Th1/17 differentiation [14]: potently block
efficacy in Hashimoto's thyroiditis model [15]: efficacious
